Experimental data reported in patent publication US20240238423A9, “TETRAHYDROISOQUINOLINE HETEROBIFUNCTIONAL BCL-XL DEGRADERS” (Treeline Biosciences, Inc., priority 2022, published 2024).
Read-outs that look alike come from different tables or passages of the source.

Molecular target: T1, Human BCL-XL protein (N-terminal HiBiT tagged BCL-XL in HT1080 cells) (Homo sapiens, UniProt Q07817)
T1 construct: expressed in transfected cells; host or cells: HT-1080 (ATCC CCL-121), stably transduced with lentivirus pLV-UBC-N-HiBiT-BCL-XL-PGK-puro and selected with puromycin
Assay: HiBiT based degradation assay
Format: cell-based
Details: HT1080 cells expressing HiBiT-BCL-XL; for Ymin (24 h) / Ymin (6 h): BCL-XL degradation normalized with DMSO control; for DC50: BCL-XL degradation
Outline: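 HT1080 cells stably transduced by lentivirus with N-terminally HiBiT-tagged human BCL-XL and kept under 1 μg/mL puromycin selection were seeded at three thousand cells per well in 40 μL RPMI 1640 into 384-well plates pre-spotted with compounds across a concentration range. Luminescence was read on a PHERAstar FSX, normalized to DMSO, and fitted with a four-parameter logistic model.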

T1 sequence (Q07817 whole entry): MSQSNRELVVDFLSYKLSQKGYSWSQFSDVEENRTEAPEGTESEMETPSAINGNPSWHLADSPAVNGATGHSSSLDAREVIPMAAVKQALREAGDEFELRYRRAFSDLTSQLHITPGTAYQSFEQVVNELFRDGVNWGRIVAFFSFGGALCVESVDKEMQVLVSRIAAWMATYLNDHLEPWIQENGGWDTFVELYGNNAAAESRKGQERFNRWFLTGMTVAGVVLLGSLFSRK

| Ymin (24 h) | DC50 (24 h, read-out: EC50 (24 h)) [nM] | Ymin (6 h) | DC50 (6 h, read-out: EC50 (6 h)) [nM] | SMILES |
| --- | --- | --- | --- | --- |
| A (Ymin < 50%) | < 100 |  |  | Cc1c(O[C@H]2CC[C@H](CCCN3CCN(c4cccc5c(C6CCC(=O)NC6=O)nn(C)c45)[C@@H](C)C3)CC2)cccc1-c1ccc(N2CCc3cccc(C(=O)Nc4nc5ccccc5s4)c3C2)nc1C(=O)O (stereo partly drawn) [Compound 274b, 6-(8-(benzo[d]thiazol-2-ylcarbamoyl)-3,4-dihydroisoquinolin-2(1H)-yl)-3-(3-(((1R,4r)-4-(3-((3S)-4-(3-(2,6-dioxopiperidin-3-yl)-1-methyl-1H-indazol-7-yl)-3-methylpiperazin-1-yl)propyl)cyclohexyl)oxy)-2-methylphenyl)picolinic acid] |
| A (Ymin < 50%) | < 100 |  |  | Cc1c(OCCC2CCN(CCN3CCN(c4ccc5c(C6CCC(=O)NC6=O)nn(C)c5c4)CC3)CC2)cccc1-c1ccc(N2CCc3cccc(C(=O)Nc4nc5ccccc5s4)c3C2)nc1C(=O)O (centres unmarked) [Compound 232, 6-[8-(1,3-benzothiazol-2-ylcarbamoyl)-3,4-dihydro-1H-isoquinolin-2-yl]-3-[3-[2-[1-[2-[4-[3-(2,6-dioxo-3-piperidyl)-1-methyl-indazol-6-yl]piperazin-1-yl]ethyl]-4-piperidyl]ethoxy]-2-methyl-phenyl]pyridine-2-carboxylic acid] |
| B (50% ≤ Ymin < 70%) | 100 to 1000 |  |  | Cc1c(OCCC[C@H]2CCN(CC(=O)Nc3cccc4c(C5CCC(=O)NC5=O)nn(C)c34)CC2(F)F)cccc1-c1ccc(N2CCc3cccc(C(=O)Nc4nc5ccccc5s4)c3C2)nc1C(=O)O (stereo partly drawn) [Compound 197a, 6-(8-(benzo[d]thiazol-2-ylcarbamoyl)-3,4-dihydroisoquinolin-2(1H)-yl)-3-(3-(3-((4S)-1-(2-((3-(2,6-dioxopiperidin-3-yl)-1-methyl-1H-indazol-7-yl)amino)-2-oxoethyl)-3,3-difluoropiperidin-4-yl)propoxy)-2-methylphenyl)picolinic acid] |
| B (50% ≤ Ymin < 70%) | 100 to 1000 |  |  | Cc1c(O[C@H]2CC[C@@H](CCC(=O)N3CCN(c4cccc5c(C6CCC(=O)NC6=O)nn(C)c45)CC3)CC2)cccc1-c1ccc(N2CCc3cccc(C(=O)Nc4nc5ccccc5s4)c3C2)nc1C(=O)O (some centres unmarked) [Compound 146b, 6-(8-(benzo[d]thiazol-2-ylcarbamoyl)-3,4-dihydroisoquinolin-2(1H)-yl)-3-(3-(((1s,4s)-4-(3-(4-(3-(2,6-dioxopiperidin-3-yl)-1-methyl-1H-indazol-7-yl)piperazin-1-yl)-3-oxopropyl)cyclohexyl)oxy)-2-methylphenyl)picolinic acid] |
| C (Ymin ≥ 70%) | 1000 to 10000 | C (Ymin ≥ 70%) | 1000 to 10000 | Cc1c(Oc2ccc(CCC(=O)Nc3ccc4c(C5CCC(=O)NC5=O)nn(C)c4c3)cc2)cccc1-c1ccc(N2CCc3cccc(C(=O)Nc4nc5ccccc5s4)c3C2)nc1C(=O)O (centres unmarked) [Compound 107, 6-[8-(1,3-benzothiazol-2-ylcarbamoyl)-3,4-dihydro-1H-isoquinolin-2-yl]-3-[3-[4-[3-[[3-(2,6-dioxo-3-piperidyl)-1-methyl-indazol-6-yl]amino]-3-oxo-propyl]phenoxy]-2-methyl-phenyl]pyridine-2-carboxylic acid] |
| A (Ymin < 50%) | < 100 |  |  | Cc1c(O[C@H]2CC[C@H](CCCCN3CCN(c4ccc5c(C6CCC(=O)NC6=O)nn(C)c5c4C)CC3)CC2)cccc1-c1ccc(N2CCc3cccc(C(=O)Nc4nc5ccccc5s4)c3C2)nc1C(=O)O (some centres unmarked) [Compound 324a, 6-(8-(benzo[d]thiazol-2-ylcarbamoyl)-3,4-dihydroisoquinolin-2(1H)-yl)-3-(3-(((1s,4r)-4-(4-(4-(3-(2,6-dioxopiperidin-3-yl)-1,7-dimethyl-1H-indazol-6-yl)piperazin-1-yl)butyl)cyclohexyl)oxy)-2-methylphenyl)picolinic acid] |
| B (50% ≤ Ymin < 70%) | 100 to 1000 | C (Ymin ≥ 70%) | 1000 to 10000 | Cc1c(Oc2ccc(CCCC(=O)Nc3ccc4c(C5CCC(=O)NC5=O)nn(C)c4c3)cc2)cccc1-c1ccc(N2CCc3cccc(C(=O)Nc4nc5ccccc5s4)c3C2)nc1C(=O)O (centres unmarked) [Compound 132, 6-(8-(benzo[d]thiazol-2-ylcarbamoyl)-3,4-dihydroisoquinolin-2(1H)-yl)-3-(3-(4-(4-((3-(2,6-dioxopiperidin-3-yl)-1-methyl-1H-indazol-6-yl)amino)-4-oxobutyl)phenoxy)-2-methylphenyl)picolinic acid] |
| B (50% ≤ Ymin < 70%) | 100 to 1000 |  |  | Cc1c(OCC(F)(F)CN2C[C@@H](C)N(CC(=O)Nc3cccc4c(C5CCC(=O)NC5=O)nn(C)c34)[C@@H](C)C2)cccc1-c1ccc(N2CCc3cccc(C(=O)Nc4nc5ccccc5s4)c3C2)nc1C(=O)O (stereo partly drawn) [Compound 209a, 6-[8-(1,3-benzothiazol-2-ylcarbamoyl)-3,4-dihydro-1H-isoquinolin-2-yl]-3-[3-[3-[(3R,5S)-4-[2-[[3-(2,6-dioxo-3-piperidyl)-1-methyl-indazol-7-yl]amino]-2-oxo-ethyl]-3,5-dimethyl-piperazin-1-yl]-2,2-difluoro-propoxy]-2-methyl-phenyl]pyridine-2-carboxylic acid] |
| B (50% ≤ Ymin < 70%) | < 100 | B (50% ≤ Ymin < 70%) | < 100 | Cc1c(OCCCN2CCC(CC(=O)Nc3ccc4c(C5CCC(=O)NC5=O)nn(C)c4c3)CC2)cccc1-c1ccc(N2CCc3cccc(C(=O)Nc4nc5ccccc5s4)c3C2)nc1C(=O)O (centres unmarked) [Compound 120, 6-[8-(1,3-benzothiazol-2-ylcarbamoyl)-3,4-dihydro-1H-isoquinolin-2-yl]-3-[3-[3-[4-[2-[[3-(2,6-dioxo-3-piperidyl)-1-methyl-indazol-6-yl]amino]-2-oxo-ethyl]-1-piperidyl]propoxy]-2-methyl-phenyl]pyridine-2-carboxylic acid] |
| A (Ymin < 50%) | < 100 |  |  | Cc1cc(O[C@H](C)CCC2CCN(CC(=O)Nc3ccc4c(C5CCC(=O)NC5=O)nn(C)c4c3)CC2)ccc1-c1ccc(N2CCc3cccc(C(=O)Nc4nc5ccccc5s4)c3C2)nc1C(=O)O (stereo in doubt) [Compound 276a, 6-[8-(1,3-benzothiazol-2-ylcarbamoyl)-3,4-dihydro-1H-isoquinolin-2-yl]-3-[4-[(1R)-3-[1-[2-[[3-(2,6-dioxo-3-piperidyl)-1-methyl-indazol-6-yl]amino]-2-oxo-ethyl]-4-piperidyl]-1-methyl-propoxy]-2-methyl-phenyl]pyridine-2-carboxylic acid] |
| B (50% ≤ Ymin < 70%) | < 100 |  |  | Cc1c(O[C@H]2CC[C@H](CCCCN3CCN(c4ccc5c(C6CCC(=O)NC6=O)nn(C)c5c4)[C@@H](C(F)(F)F)C3)CC2)cccc1-c1ccc(N2CCc3cccc(C(=O)Nc4nc5ccccc5s4)c3C2)nc1C(=O)O (stereo partly drawn) [Compound 339a, 6-(8-(benzo[d]thiazol-2-ylcarbamoyl)-3,4-dihydroisoquinolin-2(1H)-yl)-3-(3-(((1s,4r)-4-(4-((3R)-4-(3-(2,6-dioxopiperidin-3-yl)-1-methyl-1H-indazol-6-yl)-3-(trifluoromethyl)piperazin-1-yl)butyl)cyclohexyl)oxy)-2-methylphenyl)picolinic acid] |
| A (Ymin < 50%) | < 100 |  |  | Cc1c(OCCCC2CCN(CC3CCN(c4ccc5c(C6CCC(=O)NC6=O)nn(C)c5c4)CC3)CC2)cccc1-c1ccc(N2CCc3cccc(C(=O)Nc4nc5ccccc5s4)c3C2)nc1C(=O)O (centres unmarked) [Compound 247, 6-[8-(1,3-benzothiazol-2-ylcarbamoyl)-3,4-dihydro-1H-isoquinolin-2-yl]-3-[3-[3-[1-[[1-[3-(2,6-dioxo-3-piperidyl)-1-methyl-indazol-6-yl]-4-piperidyl]methyl]-4-piperidyl]propoxy]-2-methyl-phenyl]pyridine-2-carboxylic acid] |
| A (Ymin < 50%) | < 100 |  |  | Cc1c(O[C@H]2CC[C@H](CCCCN3CCC(c4ccc5c(C6CCC(=O)NC6=O)nn(C)c5c4)CC3)CC2)cccc1-c1ccc(N2CCc3cccc(C(=O)Nc4nc5ccccc5s4)c3C2)nc1C(=O)O (some centres unmarked) [Compound 299a, 6-(8-(benzo[d]thiazol-2-ylcarbamoyl)-3,4-dihydroisoquinolin-2(1H)-yl)-3-(3-(((1s,4r)-4-(4-(4-(3-(2,6-dioxopiperidin-3-yl)-1-methyl-1H-indazol-6-yl)piperidin-1-yl)butyl)cyclohexyl)oxy)-2-methylphenyl)picolinic acid] |
| A (Ymin < 50%) | < 100 |  |  | Cc1c(O[C@H]2CC[C@H](CCCN3CCN(c4ccc5c(C6CCC(=O)NC6=O)nn(C)c5c4)C[C@@H]3C(F)(F)F)CC2)cccc1-c1ccc(N2CCc3cccc(C(=O)Nc4nc5ccccc5s4)c3C2)nc1C(=O)O (stereo partly drawn) [Compound 347a, 6-(8-(benzo[d]thiazol-2-ylcarbamoyl)-3,4-dihydroisoquinolin-2(1H)-yl)-3-(3-(((1s,4r)-4-(3-((2R)-4-(3-(2,6-dioxopiperidin-3-yl)-1-methyl-1H-indazol-6-yl)-2-(trifluoromethyl)piperazin-1-yl)propyl)cyclohexyl)oxy)-2-methylphenyl)picolinic acid] |
| A (Ymin < 50%) | < 100 | A (Ymin < 50%) | < 100 | Cc1cc(OCCCN2CCN(CC(=O)N3CCN(c4ccc5c(C6CCC(=O)NC6=O)nn(C)c5c4)CC3)CC2)ccc1-c1ccc(N2CCc3cccc(C(=O)Nc4nc5ccccc5s4)c3C2)nc1C(=O)O (centres unmarked) [Compound 153, 6-(8-(Benzo[d]thiazol-2-ylcarbamoyl)-3,4-dihydroisoquinolin-2(1H)-yl)-3-(4-(3-(4-(2-(4-(3-(2,6-dioxopiperidin-3-yl)-1-methyl-1H-indazol-6-yl)piperazin-1-yl)-2-oxoethyl)piperazin-1-yl)propoxy)-2-methylphenyl)picolinic acid] |
